Test results reported in patent US20240415790A1, “A COMPOSITION FOR USE IN THE TREATMENT OF INTERVERTEBRAL DISC HERNIATION” (STAYBLE THERAPEUTICS AB, priority 2020, published 2024).

What was measured:
[1] = system: patients with chronic discogenic low back pain; test: Randomized placebo-controlled single ascending dose study, safety and tolerability of intradiscal injection; format: in vivo, human
Source text: The study was a randomized, double-blinded, placebo-controlled, single ascending dose study with the primary objective to evaluate safety and tolerability following intradiscal injection of LA in Omnipaque or placebo (Omnipaque) in 15 patients with chronic discogenic low back pain. The secondary objective was to assess effects on the NP and disc height using T2-weighted MRI. […] Prior to dose escalation, the safety review committee assessed all safety data up to Visit 3 (1 week after treatment). In case of any safety or tolerability concerns, dosing could be discontinued, or the planned dose could be lowered. The test product in this study was containing the active ingredient (S)-LA, which was provided to the site as a sterile solution in a syringe for single use. The LA doses administered were 45, 90 and 180 mg in a volume of 1.5 mL, corresponding to LA concentrations of 30, 60 and 120 mg/mL. The formulation for administration was prepared extempore and contained the contrast agent iohexol (Omnipaque™) and water for injection. The final concentration of iohexol in the injected solution was 388 mg/mL. Small amounts of tromethamine, Na2Ca edetate and HCl were also present. The solution was clear and colourless to slightly coloured. At the treatment day, patients received premedication with a sedative or anxiolytic and antibiotics, given as an i.v. infusion approximately 15 min before the intradiscal injection. The patient was placed in the right lateral decubitus position and injection was done using the two-needle technique under fluoroscopy guidance. Once correct intradiscal needle placement had been confirmed, a small volume (approximately 0.5 mL) of the formulation was first injected slowly (during half a minute) to verify that the distribution of the injectate was confined to the disc and that there was no leakage. If no leakage had occurred within half a minute, this procedure was repeated twice until the entire volume (1.5 mL) had been injected. If there was any leakage from the disc during injection, either after injection of a small volume or the entire volume (1.5 mL), the injection was interrupted. […] All patients stayed overnight at the clinic after the injection, for observation and safety assessments. After leaving the clinic, patients were to be treated with analgesics and/or other measures according to standard clinical practice. They were also given advice on restricted physical activity during the first week. Physical examination, blood pressure, heart rate, electrocardiogram (ECG), clinical chemistry and hematology were assessed using routine clinical methods. Pain during and 15 min after injection was measured using a VAS scale (0-100 mm) and the patient reported whether or not the pain reproduced the pain normally experienced in terms of location and type of pain. The distribution of Omnipaque within the IVD was documented according to the Dallas discogram scale. Local site reactions to the injection were noted, and AEs were graded for seriousness, intensity, and causality to the treatment. SAEs were defined according to the International Conference of Harmonisation guideline E2A.

collagen I = test: Immunohistochemical analysis of collagen I in porcine IVD; format: in vivo; conditions: pig, LA 60 mg/mL, treated vs untreated IVDs
Method: Since effects of LA on the NP in the subsequent clinical study was planned to be assessed using MRI, the third series focused on the effects of LA (0.2 mL, 60 mg/mL) on sclerotization as measured by T2-weighted MRI. In addition, effects of LA on the expression of collagen I and II were studied by immunohistochemistry (IHC). The macroscopic changes after LA at 60 mg/mL were similar to those described above. The tissue was dehydrated in graded ethanol and embedded in paraffin. Sections were cut on a microtome, dewaxed, and incubated with polyclonal primary antibodies against collagen I (Abcam 34710) or II (Abcam 34712). The antibodies were diluted 250 (collagen I) or 200 (collagen II) times in phosphate-buffered saline containing 1% bovine serum albumin. Incubation was done at room temperature for 60 min. The sections were then incubated for 30 min at room temperature with horseradish peroxidase-conjugated secondary antibodies (Mach 2 Uni HRP, Biocare Medical) and immunoreactivity was visualized using diaminobenzidine (Biocare Medical).

CC(O)C(=O)O (centres unmarked) [LA, lactic acid]
Adverse events by causality, Possible, m number of events ([1]; LA 30 mg/ml (n = 3)): 0
Adverse events by causality, Possible, n (%) number of patients ([1]; LA 30 mg/ml (n = 3)): 0
Adverse events by causality, Probable, m number of events ([1]; LA 30 mg/ml (n = 3)): 1
Adverse events by causality, Probable, n (%) number of patients ([1]; LA 30 mg/ml (n = 3)): 1 (33%)
Adverse events by causality, Unlikely, m number of events ([1]; LA 30 mg/ml (n = 3)): 3
Adverse events by causality, Unlikely, n (%) number of patients ([1]; LA 30 mg/ml (n = 3)): 2 (67%)
Adverse events by severity, Mild, m number of events ([1]; LA 30 mg/ml (n = 3)): 2
Adverse events by severity, Mild, n (%) number of patients ([1]; LA 30 mg/ml (n = 3)): 1 (33%)
Adverse events by severity, Moderate, m number of events ([1]; LA 30 mg/ml (n = 3)): 2
Adverse events by severity, Moderate, n (%) number of patients ([1]; LA 30 mg/ml (n = 3)): 1 (33%)
Adverse events by severity, Severe, m number of events ([1]; LA 30 mg/ml (n = 3)): 0
Adverse events by severity, Severe, n (%) number of patients ([1]; LA 30 mg/ml (n = 3)): 0
Any adverse event, m number of events ([1]; LA 30 mg/ml (n = 3)): 4
Any adverse event, n (%) number of patients ([1]; LA 30 mg/ml (n = 3)): 2 (67%)
Any serious adverse event, m number of events ([1]; LA 30 mg/ml (n = 3)): 0
Any serious adverse event, n (%) number of patients ([1]; LA 30 mg/ml (n = 3)): 0
Adverse events by causality, Possible, m number of events ([1]; LA 60 mg/ml (n = 3)): 0
Adverse events by causality, Possible, n (%) number of patients ([1]; LA 60 mg/ml (n = 3)): 0
Adverse events by causality, Probable, m number of events ([1]; LA 60 mg/ml (n = 3)): 3
Adverse events by causality, Probable, n (%) number of patients ([1]; LA 60 mg/ml (n = 3)): 3 (100%)
Adverse events by causality, Unlikely, m number of events ([1]; LA 60 mg/ml (n = 3)): 0
Adverse events by causality, Unlikely, n (%) number of patients ([1]; LA 60 mg/ml (n = 3)): 0
Adverse events by severity, Mild, m number of events ([1]; LA 60 mg/ml (n = 3)): 1
Adverse events by severity, Mild, n (%) number of patients ([1]; LA 60 mg/ml (n = 3)): 1 (33%)
Adverse events by severity, Moderate, m number of events ([1]; LA 60 mg/ml (n = 3)): 2
Adverse events by severity, Moderate, n (%) number of patients ([1]; LA 60 mg/ml (n = 3)): 2 (67%)
Adverse events by severity, Severe, m number of events ([1]; LA 60 mg/ml (n = 3)): 0
Adverse events by severity, Severe, n (%) number of patients ([1]; LA 60 mg/ml (n = 3)): 0
Any adverse event, m number of events ([1]; LA 60 mg/ml (n = 3)): 3
Any adverse event, n (%) number of patients ([1]; LA 60 mg/ml (n = 3)): 3 (100%)
Any serious adverse event, m number of events ([1]; LA 60 mg/ml (n = 3)): 0
Any serious adverse event, n (%) number of patients ([1]; LA 60 mg/ml (n = 3)): 0
Adverse events by causality, Possible, m number of events ([1]; LA 120 mg/ml (n = 3)): 1
Adverse events by causality, Possible, n (%) number of patients ([1]; LA 120 mg/ml (n = 3)): 1 (33%)
Adverse events by causality, Probable, m number of events ([1]; LA 120 mg/ml (n = 3)): 4
Adverse events by causality, Probable, n (%) number of patients ([1]; LA 120 mg/ml (n = 3)): 2 (67%)
Adverse events by causality, Unlikely, m number of events ([1]; LA 120 mg/ml (n = 3)): 3
Adverse events by causality, Unlikely, n (%) number of patients ([1]; LA 120 mg/ml (n = 3)): 2 (67%)
Adverse events by severity, Mild, m number of events ([1]; LA 120 mg/ml (n = 3)): 6
Adverse events by severity, Mild, n (%) number of patients ([1]; LA 120 mg/ml (n = 3)): 3 (100%)
Adverse events by severity, Moderate, m number of events ([1]; LA 120 mg/ml (n = 3)): 2
Adverse events by severity, Moderate, n (%) number of patients ([1]; LA 120 mg/ml (n = 3)): 1 (33%)
Adverse events by severity, Severe, m number of events ([1]; LA 120 mg/ml (n = 3)): 0
Adverse events by severity, Severe, n (%) number of patients ([1]; LA 120 mg/ml (n = 3)): 0
Any adverse event, m number of events ([1]; LA 120 mg/ml (n = 3)): 8
Any adverse event, n (%) number of patients ([1]; LA 120 mg/ml (n = 3)): 3 (100%)
Any serious adverse event, m number of events ([1]; LA 120 mg/ml (n = 3)): 0
Any serious adverse event, n (%) number of patients ([1]; LA 120 mg/ml (n = 3)): 0
Safety and tolerability of the treatment ([1]; patients, intradiscal 45-180 mg): safe and tolerable
Collagen I immunoreactivity in the NP (collagen I): strongly induced
